Data from PMC11728977, “Crystallographic, kinetic, and calorimetric investigation of PKA interactions with L-type calcium channels and Rad GTPase” (The Journal of Biological Chemistry, 2024).
No end group written: not given here.

Legend:
[1] = biological target: PKAc (catalytic subunit of PKA, PKAcα 16-351) (Mus musculus, UniProt P05132); assay: ADP-Glo kinase assay, Michaelis-Menten kinetics of PKAc phosphorylation of substrates; conditions: for reduction in kcat/Km versus WT Ser1981 peptide: from kcat/Km of Table 2; for kcat / Km / kcat/Km: ADP-Glo, 3 nM PKAc, 1 mM ATP, 5 mM Mg2+; for kcat / Km: substrate 0-256 μM, room temperature 30 min; for kcat: 50 mM Hepes pH 7.4, 150 mM KCl, mean ± SD of n = 3 or 4 biological replicates, less reliable for poor substrates; for Km: Michaelis-Menten fit; for Km / kcat/Km: mean ± SD of n = 3 or 4
Procedure: We used enzyme kinetics to investigate the activity of catalytic subunit of PKA (PKAc) toward the three target sites within the C terminus of CaV1.2. We performed discontinuous kinase assays using an ADP-GloMax Assay kit.
Kinase assays were conducted using an ADP-Glo Kinase Assay Kit (Promega). […] Therefore, we performed assays with excess ATP (1 mM) and Mg^2+ (5 mM) to saturate PKAc prior to substrate binding. Reagents were prepared as described in the kit, aliquoted, and frozen at −20 °C prior to use. Reactions were conducted in 384-well solid white polystyrene microplates (Corning). Peptide substrates and EFPreIQ were dissolved and/or diluted to 800 μM using 50 mM Hepes (pH 7.4), 150 mM KCl, 5 mM MgCl2, and 4 mM TCEP. […] For peptides lacking tryptophan, the amount of volume needed to achieve a concentration of 800 μM was calculated prior to dissolving. The peptides/substrate was 2-fold serially diluted using the same buffer to create 11 reactions per curve ranging from 0 to 256 μM. ATP was added to each reaction to achieve a final concentration of 1 mM. Reactions were initiated by the addition of thawed PKAc at a final concentration of 3 nM at a final well volume of 20 μl. After allowing reactions to occur at room temperature for 30 min, 3 × 5 ml from each reaction in a curve was taken and mixed with 5 ml ADP-Glo Reagent for a total of three technical replicates per biological replicate. After 40 min, 10 ml of kinase detection reagent was added to each technical replicate and, after waiting 60 min, relative luminescence unit were measured using a VICTOR X4 Multilabel Plate Reader (PerkinElmer).
The relative luminescence unit values were converted to specific activity values via interpolation of a standard curve that was created in accordance with the manufacturer’s protocol. The three technical replicates were averaged to calculate a biological replicate value and plotted against peptide concentration using GraphPad 9 (Prism) software (https://www.graphpad.com/updates/prism-900-release-notes). Technical replicate values resulting from experimental error were removed from the dataset and subsequent averaging. […] The Michaelis–Menten kinetics fitting function was used to generate a nonlinear regression to calculate both a Km constant and Vmax value for each biological replicate curve. These Km constant and Vmax values were averaged and SDs are reported. Figures displaying data points and Michaelis–Menten curves depict the average specific activity values calculated from all biological replicates in the three or four experiments (n = 3 or n = 4) per peptide (n = 4 for Ser1981 and Ser272 peptides, n = 3 for all others).
PKAc:AMP-PNP = biological target: T1, PKAc:AMP-PNP (Mus musculus, UniProt P05132); assay: Isothermal titration calorimetry of substrates binding to PKAc:AMP-PNP
T1 construct: 6xHis (N, cleaved yes); made in house; host or cells: Escherichia coli Rosetta (DE3)pLysS
Procedure: As an independent means to assess which substrate peptides are preferred by PKAc, we used ITC to determine the inherent affinities for the various peptides. ITC also provides the enthalpy and entropy changes upon binding and can thus help provide a rationale for different affinities. The ITC experiments were performed using excess Mg^2+ (5 mM) and 0.5 mM adenylyl-imidodiphosphate (AMP)-PNP (a nonhydrolyzable ATP analog) (Fig. 2).
ITC experiments were conducted using a MicroCal iTC200 (GE Healthcare, now Malvern) instrument. The ITC/assay buffer was used to dissolve peptides to a concentration of 1.25 to 4.3 mM. Substrate concentrations were optimized and chosen based on how much was needed to achieve sufficient signal to noise ratio. Rad Ser25 peptide contained a tryptophan residue, which allowed us to determine its concentration via 280 nm absorbance readings using an extinction coefficient of 5500 M^−1 cm^−1. For peptides lacking a tryptophan or tyrosine residue (Ser1981 WT and mutant peptides, Ser1718 peptide, Ser272 peptide, and Ser300 peptide), the amount of volume needed to achieve the desired concentration was calculated prior to diluting. Peptides were received as powder in 1 mg aliquots and using molecular weights of the peptide, the number of moles in each aliquot was determined. The number of moles was used to determine how much volume was required to achieve the desired concentration. AMP-PNP (Millipore Sigma) was dissolved in ITC/Assay buffer to a concentration of 100 mM, aliquoted in 20 μl volumes, and stored at −70 °C. Prior to each run, both titrant and titrand solutions were supplemented with AMP-PNP to a final concentration of 500 μM. The titration experiments were conducted at 4 °C with a stirring speed of 500 RPM. Each titration experiment was comprised of 20 injections with 230 s in between each injection. Each injection totalled 2.0 μl over 4 s except the first injection being 0.4 μl over 0.8 s. Background runs of peptide/substrate into ITC/assay buffer were conducted to generate a linear regression using the isotherm to subtract background heats from experimental runs. Peptides displaying large background heats were dialyzed in ITC/assay buffer for 60 min to remove contaminants remaining from peptide synthesis. The peptide into PKAc runs (experimental runs) utilized the same settings. The data was processed using Origin (Version 7.0, OriginLab) software (https://www.originlab.com/origin).

[2] = 4 °C, 0.5 mM AMP-PNP, 5 mM MgCl2
[3] = ITC, 4 °C, 0.5 mM AMP-PNP, 5 mM MgCl2, mean ± SD, n = 3

RGFLRSASLGRRASAHL [F1982A peptide] was tested, and the “reduction in kcat/Km versus WT Ser1981 peptide” value [1] was roughly 26%.
“RTLHDIGPEIRRAISGDL [S1718 peptide, synthetic peptide, human CaV1.2 residues 1704–1721 containing Ser1718]” was tested, and the kcat [1] was 3.4 ± 1.3 s⁻¹ and the “binding to PKAc detected by ITC” value (PKAc:AMP-PNP; [2]) was “could not detect any heat signals indicative of binding”.
“SNADYLTRDWSILG… [EFPreIQ (S1535), recombinant human CaV1.3 residues 1468–1598 (EF-hand and PreIQ domain) mimicking the CaV1.2 Ser1535 site]” was tested, and the kcat [1] was 1.3 ± 0.2 s⁻¹ and the “binding to PKAc detected by ITC” value (PKAc:AMP-PNP; [2]) was “could not detect any heat signals indicative of binding”.
For “SRKMAFRAKSKSCHD [Rad S300 peptide, Rad-derived peptide, residues 289–303 containing Ser300]”, the kcat [1] was 3.3 ± 1.4 s⁻¹ and the “binding to PKAc detected by ITC” value (PKAc:AMP-PNP; [2]) was “not”.
For LRRASLG [Kemptide, reference compound], the kcat [1] was 19.0 ± 1.5 s⁻¹, the Km [1] was 42.6 ± 2.4 µM and the kcat/Km [1] was 470000 ± 50000 M⁻¹ s⁻¹.
Work on “RGFLRSARLGRRASFHL [S1975R peptide, CaV1.2 S1981 peptide mutant S1975R]” yielded a kcat [1] of 7.5 ± 0.9 s⁻¹, a Km [1] of 6.2 ± 2.7 µM and a kcat/Km [1] of 1.2e+06 ± 500000 M⁻¹ s⁻¹. The “reduction in kcat/Km versus WT Ser1981 peptide” value [1] was 37%, the ΔG (PKAc:AMP-PNP; [3]) was -5.11 ± 2.2 kcal/mol and the “−TΔS” value (PKAc:AMP-PNP; [3]) was -8.6 ± 2.2 kcal/mol. For the same substance, the “reduction in affinity for PKAc versus WT Ser1981 peptide” value (PKAc:AMP-PNP; ITC, from KD of Table 3) was “more than 15 fold”.
“WGPAPPLHRRSMP [Rad S38 peptide, Rad-derived peptide, residues 28–40 containing Ser38]” was tested, and the kcat [1] was 2 ± 1.9 s⁻¹, the kcat ([1]; listed as Ser38) was 2.0 ± 1.9 s⁻¹ and the “binding to PKAc detected by ITC” value (PKAc:AMP-PNP; [2]) was “not”.
In the case of “RGFLRSASLGRAASFHL [R1979A peptide, CaV1.2 S1981 peptide mutant R1979A]”, the “enzymatic activity of PKAc toward the peptide” value ([1]; ADP-Glo kinase assay) is reported as “very low”, the kcat [1] is reported as 1.1 ± 0.1 s⁻¹ and the “binding to PKAc detected by ITC” value (PKAc:AMP-PNP; [2]) is reported as “no longer detect any interaction”.
